Where two headings read alike, the source gives them in different places.
What was measured:
[1] = in vivo; cited from earlier work
[2] = molecular target: Norepinephrine Transporter (Human Recombinant) (Homo sapiens (Human), UniProt P23975); assay: Norepinephrine transporter (human recombinant) binding assay, [3H]-Nisoxetine; conditions: for inhibition at 10 µM: read-out: INH at 10 μM NET
Description: II: Norepinephrine Transporter (Human Recombinant) Binding Assay • This assay was carried out in accordance with the procedure described by Raisman, R, et al. Eur. Jrnl. Pharmacol. 78: 345-351 (1982) with modifications. See also, Langer, S., et al., Eur. Jrnl. Pharmacol, 72: 423-4 (1981). Tissue Preparation • 1. hrNET (Receptor Biology; RBNET) is diluted in assay buffer to 2.5 microunits/ml, so that each tube receives 0.5 microunits, or 2 microunits/ml. • NOTE: 100 microassays, add 20 mis of buffer. Binding Reaction • 1. Each tube receives the following components: • 25 ul drug or vehicle • 25 ul [^3H]-Nisoxetine • 200 ul tissue suspension. • 2. Initiate binding reaction with the addition of tissue, and incubate at room temperature for 1 hour. • 3. Terminate binding reaction by rapid filtration of tube contents onto 0.1% PEI treated GF/C filters (TopCount). • 4. Rinse the assay tubes once with ice cold 50 mM NaCl, then rapidly rinse the filters with 6×1 ml/tube of the same wash buffer. • 5. Radioactivity trapped onto the filters is assessed using liquid scintillation spectrophotometer after soaking the filters for at least 1 hour in scintillation cocktail. Materials and Reagents • 1. The receptor source is human recombinant/CHO. • 2. [^3H]-Nisoxetine, diluted to a concentration of 10 nM in assay buffer, is used as the radioligand. Thus, the final ligand concentration is 1 nM. • 3. Non specific binding is defined as that remaining in the presence of 1×10^−6M desipramine (MW=302.8) (Make fresh: in bag with dessicating rocks 1, dissolves in water 1E-3). • 4. The reference compound for the assay is desipramine. Desimpramine is run at following final concentrations: • 1×10^−10, 2×10^−10, 5×10^−10, 1×10^−9, 2×10^−9, 5×10^−9, 1×10^−8, 2×10^−8, 5×10^−8, 1×10^−7, 2×10^−7, 5×10^−7M • 5. The positive control is any of the above run at the final concentrations of: • 1×10^−9, 5×10^−9, 2×10^−8 M. • 6. The Kd for the receptor is 3 nM. Buffers

[3] = molecular target: dopamine transporter (DAT) (Cavia porcellus, UniProt H0WCX4); assay: Dopamine transporter binding assay [3H]WIN 35,428; set-up: species or system Guinea Pig; conditions: for inhibition at 10 µM: read-out: INH at 10 μM DAT
dopamine transporter (DAT), sequence (H0WCX4 1-619): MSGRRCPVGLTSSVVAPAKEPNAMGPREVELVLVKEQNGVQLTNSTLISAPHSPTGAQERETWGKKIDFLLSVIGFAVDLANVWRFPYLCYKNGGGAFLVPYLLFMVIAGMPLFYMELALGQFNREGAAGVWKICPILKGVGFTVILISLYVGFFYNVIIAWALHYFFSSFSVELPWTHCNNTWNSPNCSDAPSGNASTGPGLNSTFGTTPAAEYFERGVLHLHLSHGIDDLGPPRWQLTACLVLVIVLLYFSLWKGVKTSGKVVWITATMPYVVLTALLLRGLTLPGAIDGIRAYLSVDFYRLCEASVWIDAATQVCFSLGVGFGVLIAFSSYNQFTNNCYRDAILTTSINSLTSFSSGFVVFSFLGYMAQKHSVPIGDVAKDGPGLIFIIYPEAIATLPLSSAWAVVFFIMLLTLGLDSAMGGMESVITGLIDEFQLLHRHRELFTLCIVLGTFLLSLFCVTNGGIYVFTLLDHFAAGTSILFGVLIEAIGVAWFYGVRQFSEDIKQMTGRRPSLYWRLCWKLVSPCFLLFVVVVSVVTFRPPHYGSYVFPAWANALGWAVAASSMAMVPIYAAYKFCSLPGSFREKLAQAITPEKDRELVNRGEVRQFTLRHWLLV
Description: DAT inhibition activity was tested according to the procedure described by J. Javitz et al., Mol. Pharmacol., 26: 35-44 (1984). The test results for a number of representative compounds of the invention are reported hereinbelow.
I. Dopamine Transporter Binding Assay [3H]WIN 35,428
• This assay was carried out according to the procedure described by Javitch, J. J. et al., Mol. Pharmacol. 26: 35-44; 1984
A. Tissue Preparation (Prepare all Solutions on Ice) • 1. Thaw frozen brains from male Guinea Pigs (in assay buffer) and place in 50 mM TRIS-HCl (pH 7.4 at 25° C. with 120 mM NaCl). Isolate striatum. • 2. Use a Polytron to homogenize tissue in 20 vols. (w/v) of 50 mM Tris-HCl (pH 7.4 at 25° C. with 120 mM NaCl). • 3. Centrifuge homogenate at 48,400×g for approximately 10 minutes at 4° C. Discard supernatant. • 4. Wash pellet an additional time as described in steps 2 and 3. • 5. Store pellet on ice until needed for binding assay. • 6. Using a Polytron (setting 5; approximately 10 seconds) resuspend pellet in 50 mM Tris-HCl (pH 7.4 at 25° C. with 120 mM NaCl) to an initial concentration of 10 mg/ml (original wet weight), such that the final concentration is 8 mg/ml or 4.0 mg tissue/tube.
B. Binding Reaction • 1. Each tube receives the following components: • 50 ul drug or vehicle • 50 ul [3H]-WIN 35,428 • 400 ul tissue suspension. • 2. Initiate binding reaction with the addition of tissue, and incubate for 120 minutes at 0° C. (on ice). • 3. Terminate binding reaction by rapid filtration of tube contents onto untreated Whatman GF/C filters. • 4. Rinse the assay tubes once with ice cold 50 mM TRIS HCl (pH 7.4 at 25° C. with 120 mM NaCl, BSA), then rapidly rinse the filters with 6×1 mls/tube of the same wash buffer. • 5. Radioactivity trapped onto the filters is assessed using LSM machine. Let sit for 3 hours in scint cocktail.
C. Dopamine Tranasporter Binding Assay
Materials and Reagents • 1. [3H]-WIN 35-428 is diluted to a concentration of 60 nM in 50 mM TRIS HCl (pH 7.4 at 25° C. with 120 mM NaCl). Thus, the final ligand concentration is 6 nM. • 2. Non-specific binding is defined as that remaining in the presence of 1×10^-6 M GBR12909 (room temperature cabinet). GBR12909 MW=523.5 g/mol. Will solubilize in 4% DMSO (sonicate 15 minutes). Aliquots can be used (1E-3). • 3. The reference compound for the assay is GBR12909 and is diluted in 4% DMSO and is then run at the following final concentrations: 1×10^−10, 5×10^−10, 2×10^−9, 5×10^−9, 1×10^−8, 2×10^−8, 5×10^−8, 1×10^−7, 2×10^−7, 5×10^−7, 1×10^−6, 5×10^−6. • 4. The positive control GBR12909 and is run at the final concentrations of: 2×10-8, 1×10^−7, 5×10^−7M. • 5. The Kd for the receptor is 28.0 nM. Buffers

Structure (SMILES)	Effect on locomotor activity in open field studies [1]	inhibition at 10 µM [2] [%]	Ki [3] [nM]	inhibition at 10 µM [3] [%]	INH at 10 μM NET ([2]; 10 μM) [%]	INH at 10 μM DAT ([3]; 10 μM) [%]	Ki ([3]; read-out: Ki DAT) [nM]
CC(Cc1ccccc1)[n+]1cc([N-]C(=O)Nc2ccccc2)on1 (stereo not shown) [sydnocarb, 3-(1-methyl-2-phenylethyl)-N-(phenylcarbomoyl)sydnone imine]	locomotor stimulating effect	–	–	–	–	–	–
O=C(/N=c1\[cH-][n+](CCc2ccccc2)no1)Nc1ccc(Cl)c(Cl)c1 [Example 4, N-(3′,4′-dichlorophenyl) carbamoyl-3-phenethyl sydnonimine]	–	2	40	99	–	–	–
O=C(/N=c1\[cH-][n+](CCc2ccc([N+](=O)[O-])cc2)no1)Nc1ccc([N+](=O)[O-])c([N+](=O)[O-])c1 [Example 5, N-(3′,4′-dinitrophenyl)carbamoyl-3-p-nitrophenethyl sydnonimine]	–	4	100	85	–	–	–
O=C(/N=c1\[cH-][n+](Cc2ccccc2)no1)Nc1ccccc1 [Example 1, N-phenylcarbamoyl-3-(benzyl)-sydonimine]	–	0	36	90	–	–	–
O=C(/N=c1\[cH-][n+](Cc2ccc(F)cc2)no1)Nc1ccccc1 [Example 7, N-phenylcarbamoyl-3-(p-fluoro-benzyl)-sydnonimine]	–	15	0.46	99	–	–	–
O=C([N-]c1c[n+](Cc2ccc(C(=O)O)cc2)no1)Nc1ccccc1 [Example 2]	–	–	–	–	11	92	2.7
